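Tested at 5 concentrations; 48 h exposure; 96-well plates; endpoints linearly interpolated, else capped at highest concentration. Here, GI50 denotes the concentration required for 50% inhibition of growth.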 Active and inactive are the calls of the source. No stated cut-off is given here; in the data, active = GI50 up to about 1.1 µM and inactive = higher.
Legend:
Experiment in all cases: growth of human tumour cells (NCI), 48 h
RXF 393 = tested on: RXF 393
NCI-H460 = tested on: NCI-H460
OVCAR-8 = tested on: OVCAR-8
HCC 2998 = tested on: HCC 2998
SN12C = tested on: SN12C
OVCAR-5 = tested on: OVCAR-5
LOX IMVI = tested on: LOX IMVI
SK-OV-3 = tested on: SK-OV-3
M14 = tested on: M14
ACHN = tested on: ACHN
SNB-78 = tested on: SNB-78
CAKI-1 = tested on: CAKI-1
DMS-114 = tested on: DMS-114
IGROV-1 = tested on: IGROV-1
HT-29 = tested on: HT-29
UACC-257 = tested on: UACC-257
NCI-H23 = tested on: NCI-H23
HCT-116 = tested on: HCT-116
DLD-1 = tested on: DLD-1
KM-20L2 = tested on: KM-20L2
HOP-92 = tested on: HOP-92
SNB-75 = tested on: SNB-75
UO-31 = tested on: UO-31
K562 = tested on: K562
SNB-19 = tested on: SNB-19
SR = tested on: SR
U-251 = tested on: U-251
OVCAR-4 = tested on: OVCAR-4
Malme-3M = tested on: Malme-3M
RPMI-8226 = tested on: RPMI-8226
786-0 = tested on: 786-0
CCRF-CEM = tested on: CCRF-CEM
NCI-H522 = tested on: NCI-H522
NCI-H226 = tested on: NCI-H226
A498 = tested on: A498
HOP-62 = tested on: HOP-62
UACC-62 = tested on: UACC-62
XF498 = tested on: XF498
A549 = tested on: A549
HOP-18 = tested on: HOP-18
KM12 = tested on: KM12
SW-620 = tested on: SW-620
SF-295 = tested on: SF-295
RXF 631 = tested on: RXF 631
M19-MEL = tested on: M19-MEL
SF-268 = tested on: SF-268
SK-MEL-5 = tested on: SK-MEL-5
HCT-15 = tested on: HCT-15
SK-MEL-28 = tested on: SK-MEL-28
SF-539 = tested on: SF-539
SK-MEL-2 = tested on: SK-MEL-2
LXFL 529 = tested on: LXFL 529
DMS-273 = tested on: DMS-273
HL-60 = tested on: HL-60
MOLT-4 = tested on: MOLT-4
EKVX = tested on: EKVX
TK-10 = tested on: TK-10
MDA-MB-231 = tested on: MDA-MB-231
BT-549 = tested on: BT-549
PC-3 = tested on: PC-3
COLO 205 = tested on: COLO 205
T47D = tested on: T47D
MCF7 = tested on: MCF7
OVCAR-3 = tested on: OVCAR-3
DU-145 = tested on: DU-145
MDA-N = tested on: MDA-N
Hs-578T = tested on: Hs-578T
MDA-MB-435 = tested on: MDA-MB-435

Compound: CN(C)c1n/c(=N/c2cccc(Cl)c2)ss1
- GI50 (RXF 393): 16.7 µM (inactive)
- GI50 (NCI-H460): 9.2 µM (inactive)
- GI50 (OVCAR-8): 12.9 µM (inactive)
- GI50 (HCC 2998): 20.4 µM (inactive)
- GI50 (SN12C): 12.8 µM (inactive)
- GI50 (OVCAR-5): 35 µM (inactive)
- GI50 (LOX IMVI): 14.5 µM (inactive)
- GI50 (SK-OV-3): 68.9 µM (inactive)
- GI50 (M14): 14.6 µM (inactive)
- GI50 (ACHN): 18.4 µM (inactive)
- GI50 (SNB-78): 18.1 µM (inactive)
- GI50 (CAKI-1): 19.1 µM (inactive)
- GI50 (DMS-114): 11.2 µM (inactive)
- GI50 (IGROV-1): 20.3 µM (inactive)
- GI50 (HT-29): 18.8 µM (inactive)
- GI50 (UACC-257): 15.6 µM (inactive)
- GI50 (NCI-H23): 12.9 µM (inactive)
- GI50 (HCT-116): 11.9 µM (inactive)
- GI50 (DLD-1): 12.1 µM (inactive)
- GI50 (KM-20L2): 17.4 µM (inactive)
- GI50 (HOP-92): 28.1 µM (inactive)
- GI50 (SNB-75): 31 µM (inactive)
- GI50 (UO-31): 38.4 µM (inactive)
- GI50 (K562): 9.08 µM (inactive)
- GI50 (SNB-19): 35.9 µM (inactive)
- GI50 (SR): 4.12 µM (inactive)
- GI50 (U-251): 11.8 µM (inactive)
- GI50 (OVCAR-4): 14.6 µM (inactive)
- GI50 (Malme-3M): 14.1 µM (inactive)
- GI50 (RPMI-8226): 0.951 µM (active)
- GI50 (786-0): 12.9 µM (inactive)
- GI50 (CCRF-CEM): 0.0405 µM (active)
- GI50 (NCI-H522): 1.16 µM (inactive)
- GI50 (NCI-H226): 34.7 µM (inactive)
- GI50 (A498): 28.1 µM (inactive)
- GI50 (HOP-62): 68.5 µM (inactive)
- GI50 (UACC-62): 10.8 µM (inactive)
- GI50 (XF498): 16.7 µM (inactive)
- GI50 (A549): 22.7 µM (inactive)
- GI50 (HOP-18): > 100 µM (inactive)
- GI50 (KM12): 17.5 µM (inactive)
- GI50 (SW-620): 5.52 µM (inactive)
- GI50 (SF-295): 24.1 µM (inactive)
- GI50 (RXF 631): 13.5 µM (inactive)
- GI50 (M19-MEL): 17.1 µM (inactive)
- GI50 (SF-268): 13.6 µM (inactive)
- GI50 (SK-MEL-5): 27.5 µM (inactive)
- GI50 (HCT-15): 14.5 µM
- GI50 (SK-MEL-28): 12.1 µM (inactive)
- GI50 (SF-539): 18.7 µM (inactive)
- GI50 (SK-MEL-2): 16.9 µM (inactive)
- GI50 (LXFL 529): 7.14 µM (inactive)
- GI50 (DMS-273): 13 µM (inactive)
- GI50 (HL-60): 3.74 µM (inactive)
- GI50 (MOLT-4): 3.03 µM (inactive)
- GI50 (EKVX): 23.7 µM (inactive)
- GI50 (TK-10): 55.2 µM (inactive)

Compound: CCn1c2c(n(CC)c1=S)-c1c(n(CC)c(=S)n1CC)SSSS2
- GI50 (MDA-MB-231): 2.18 µM (inactive)
- GI50 (RXF 393): 1.36 µM (inactive)
- GI50 (NCI-H460): 53.7 µM (inactive)
- GI50 (OVCAR-8): 8.77 µM (inactive)
- GI50 (HCC 2998): 25.4 µM (inactive)
- GI50 (SN12C): 11.2 µM (inactive)
- GI50 (OVCAR-5): 17.3 µM (inactive)
- GI50 (LOX IMVI): 9.79 µM (inactive)
- GI50 (SK-OV-3): > 67.3 µM (inactive)
- GI50 (M14): 6.35 µM (inactive)
- GI50 (ACHN): 5.02 µM (inactive)
- GI50 (BT-549): 15.4 µM (inactive)
- GI50 (SNB-78): 11.4 µM (inactive)
- GI50 (CAKI-1): 17.9 µM (inactive)
- GI50 (DMS-114): 15.8 µM (inactive)
- GI50 (IGROV-1): 17.8 µM (inactive)
- GI50 (PC-3): > 10 µM (inactive)
- GI50 (HT-29): 11.7 µM (inactive)
- GI50 (UACC-257): 8.57 µM (inactive)
- GI50 (NCI-H23): 8.75 µM (inactive)
- GI50 (COLO 205): 5.53 µM (inactive)
- GI50 (HCT-116): 3.4 µM (inactive)
- GI50 (DLD-1): 1.63 µM (inactive)
- GI50 (KM-20L2): 11.6 µM (inactive)
- GI50 (HOP-92): 3.33 µM (inactive)
- GI50 (T47D): 1.63 µM (inactive)
- GI50 (SNB-75): 1.91 µM (inactive)
- GI50 (MCF7): 16 µM (inactive)
- GI50 (UO-31): 12.7 µM (inactive)
- GI50 (K562): 1.03 µM (active)
- GI50 (SNB-19): > 84.1 µM (inactive)
- GI50 (OVCAR-3): 7.23 µM (inactive)
- GI50 (SR): 1.69 µM (inactive)
- GI50 (U-251): 22.2 µM (inactive)
- GI50 (OVCAR-4): 9.53 µM (inactive)
- GI50 (DU-145): > 100 µM (inactive)
- GI50 (Malme-3M): 2.83 µM (inactive)
- GI50 (MDA-N): > 10 µM (inactive)
- GI50 (RPMI-8226): 2.82 µM (inactive)
- GI50 (786-0): 16.7 µM (inactive)
- GI50 (CCRF-CEM): 1.24 µM (inactive)
- GI50 (NCI-H522): 1.88 µM (inactive)
- GI50 (NCI-H226): 31.8 µM (inactive)
- GI50 (A498): 37.5 µM (inactive)
- GI50 (HOP-62): > 100 µM (inactive)
- GI50 (Hs-578T): 0.308 µM (active)
- GI50 (UACC-62): 10.7 µM (inactive)
- GI50 (XF498): 1.52 µM (inactive)
- GI50 (A549): 36.7 µM (inactive)
- GI50 (HOP-18): 8.85 µM (inactive)
- GI50 (KM12): 19.2 µM (inactive)
- GI50 (SW-620): 1.67 µM (inactive)
- GI50 (SF-295): 40.7 µM (inactive)
- GI50 (RXF 631): 15.3 µM (inactive)
- GI50 (M19-MEL): 7.78 µM (inactive)
- GI50 (SF-268): 21.1 µM (inactive)
- GI50 (SK-MEL-5): 27 µM (inactive)
- GI50 (HCT-15): 4.49 µM
- GI50 (SK-MEL-28): 7.31 µM (inactive)
- GI50 (SF-539): 12.2 µM (inactive)
- GI50 (SK-MEL-2): 16.6 µM (inactive)
- GI50 (LXFL 529): 2.1 µM (inactive)
- GI50 (DMS-273): 17.5 µM (inactive)
- GI50 (HL-60): 2.9 µM (inactive)
- GI50 (MOLT-4): 2.31 µM (inactive)
- GI50 (EKVX): 14.5 µM (inactive)
- GI50 (MDA-MB-435): 13.3 µM (inactive)
- GI50 (TK-10): 15.2 µM (inactive)
